This note sets out measurements from patent publication US20220387608A1, “ADRENOMEDULLIN-ANALOGUES FOR LONG-TERM STABILIZATION AND THEIR USE” (Bayer Aktiengesellschaft, priority 2019, published 2022).

Positions of bridges follow the written chain, without caps; N, C: chain ends. Non-standard residues stand in square brackets, D forms with d. Residues, ends and D or L forms follow the SMILES beside them. *: point of attachment. X1 = CN(C)c1ccc2c(c1)Oc1cc(N(C)C)ccc1C21OC(=O)c2ccc(C(=O)*)cc21; C18 diacid = O=C(O)CCCCCCCCCCCCCCCCC(=O)*; PEG3 = NCCOCCOCCOCCC(=O)O; Dap = NC[C@H](N)C(=O)O

The nature of this data set: Stability determination of TAMRA-labelled adrenomedullin analogues in human blood plasma. The settings on record: 37° C., 10^-5 M, slow-decay phase half-life, read-out: t1/2 (slow) (converted). The class given is in vitro ADME. The method, then: The stability of the peptides was investigated using fluorescently labeled analogues, which were prepared as described above.
The TAMRA-labeled analogues were dissolved in 1.5 m1 of human blood plasma to a concentration of 10^−5 M and incubated at 37° C. under constant shaking. Samples of 150 μl were taken at different time points and precipitated with 300 μl Ethanol/ACN (1:1) for at least 1 h at −20° C. After centrifugation for 30 s at 12000 rpm, the supernatant was collected and incubated at −20° C. for at least 3 h. Subsequently, it was transferred into Costar® Spin-X® Centrifuge Tube Filters (0.22 μm) and centrifuged for 1 h at 12000 rpm. The samples were analyzed by RP-HPLC using a VariTide RPC column (Agilent Technologies, 250 mm×4.6 mm, […], 200 Å) with linear gradients of 0.1% TFA in water and 0.08% TFA in ACN; fluorescence measurement (λex=525 nm; λem=572 nm) was used for the detection of the analogues and their N-terminal fragments. The percentage of intact peptide was determined by peak integration. The values of peaks containing additional cleavage fragments were corrected by comparing intensities of cleavage fragments and intact peptide using MALDI-MS analysis (UltraflexIII, Bruker). The stability of the peptides was calculated with GraphPad Prism 5 (GraphPad Software) using a two phase exponential decay function for the determination of slow-decay phase half-lives (ln(2)/Kslow; Kslow: rate constant of slow part of exponential decay).
`CC[C@H](C)[C@H](NC(=O)[C@H](CCC(N)=O)NC(=O)[C@H](Cc1c[nH]cn1)NC(=O)[C@H](C)NC(=O)[C@H](CC(C)C)NC(=O)[C@H](CCCCN)NC(=O)[C@H](CCC(N)=O)NC(=O)[C@@H](NC(=O)[C@@H](NC(=O)[C@@H]1CSSC[C@H](NC(=O)CNC(=O)[C@H](CCCCNC(=O)CCCCCCCCCCCCCCCCC(=O)O)NC(=O)c2ccc3c(c2)C2(OC3=O)c3ccc(N(C)C)cc3Oc3cc(N(C)C)ccc32)C(=O)N[C@@H](CCCNC(=N)N)C(=O)N[C@@H](Cc2ccccc2)C(=O)NCC(=O)N[C@@H]([C@@H](C)O)C(=O)N1)[C@@H](C)O)C(C)C)C(=O)N[C@@H](Cc1ccc(O)cc1)C(=O)N[C@@H](CCC(N)=O)C(=O)N[C@@H](Cc1ccccc1)C(=O)N[C@H](C(=O)N[C@@H](CC(=O)O)C(=O)N[C@@H](CCCCN)C(=O)N[C@@H](CC(=O)O)C(=O)N[C@@H](CCCCN)C(=O)N[C@@H](CC(=O)O)C(=O)N[C@@H](CC(N)=O)C(=O)N[C@H](C(=O)N[C@@H](C)C(=O)N1CCC[C@H]1C(=O)N[C@H]1CCCCNC(=O)C[C@@H](C(=O)N2CCC[C@H]2C(=O)N[C@@H](CCC(N)=O)C(=O)NCC(=O)N[C@@H](Cc2ccc(O)cc2)C(N)=O)NC(=O)[C@H]([C@@H](C)CC)NC(=O)[C@H](CCCCN)NC(=O)[C@H](CO)NC1=O)C(C)C)[C@@H](C)O` [TAM-13] (X1-K(C18 diacid)GCRFGTCTVQKLAHQIYQFTDKDKDNVAPKSKIDPQGY-NH2; disulfide 3-8; lactam 31-35): the half-life is more than 144 h.

For the molecule `CC[C@H](C)[C@H](NC(=O)[C@H](CCC(N)=O)NC(=O)[C@H](Cc1c[nH]cn1)NC(=O)[C@H](C)NC(=O)[C@H](CC(C)C)NC(=O)[C@H](CCCCN)NC(=O)[C@H](CCC(N)=O)NC(=O)[C@@H](NC(=O)[C@@H](NC(=O)[C@@H]1CSSC[C@H](NC(=O)CNC(=O)CNC(=O)c2ccc3c(c2)C2(OC3=O)c3ccc(N(C)C)cc3Oc3cc(N(C)C)ccc32)C(=O)N[C@@H](CCCNC(=N)N)C(=O)N[C@@H](Cc2ccccc2)C(=O)NCC(=O)N[C@@H]([C@@H](C)O)C(=O)N1)[C@@H](C)O)C(C)C)C(=O)N[C@@H](Cc1ccc(O)cc1)C(=O)N[C@@H](CCC(N)=O)C(=O)N[C@@H](Cc1ccccc1)C(=O)N[C@H](C(=O)N[C@@H](CC(=O)O)C(=O)N[C@@H](CCCCN)C(=O)N[C@@H](CC(=O)O)C(=O)N[C@@H](CCCCN)C(=O)N[C@@H](CC(=O)O)C(=O)N[C@@H](CC(N)=O)C(=O)N[C@H](C(=O)N[C@@H](C)C(=O)N1CCC[C@H]1C(=O)N[C@@H](CCCNC(=N)N)C(=O)N[C@@H](CO)C(=O)N[C@@H](CCCCN)C(=O)N[C@H](C(=O)N[C@@H](CO)C(=O)N1CCC[C@H]1C(=O)N[C@@H](CCC(N)=O)C(=O)NCC(=O)N[C@@H](Cc1ccc(O)cc1)C(N)=O)[C@@H](C)CC)C(C)C)[C@@H](C)O` [TAM-control, reference compound], the half-life is 12 h.

In the case of `CC[C@H](C)[C@H](NC(=O)[C@H](CCC(N)=O)NC(=O)[C@H](Cc1c[nH]cn1)NC(=O)[C@H](C)NC(=O)[C@H](CC(C)C)NC(=O)[C@H](CCCCN)NC(=O)[C@H](CCC(N)=O)NC(=O)[C@@H](NC(=O)[C@@H](NC(=O)[C@@H]1CCC(=O)NC[C@H](NC(=O)CNC(=O)[C@H](CCCCNC(=O)CCCCCCCCCCCCCCCCC(=O)O)NC(=O)c2ccc3c(c2)C2(OC3=O)c3ccc(N(C)C)cc3Oc3cc(N(C)C)ccc32)C(=O)N[C@@H](CCCNC(=N)N)C(=O)N[C@@H](Cc2ccccc2)C(=O)NCC(=O)N[C@@H]([C@@H](C)O)C(=O)N1)[C@@H](C)O)C(C)C)C(=O)N[C@@H](Cc1ccc(O)cc1)C(=O)N[C@@H](CCC(N)=O)C(=O)N[C@@H](Cc1ccccc1)C(=O)N[C@H](C(=O)NCCOCCOCCOCCC(=O)N[C@@H](CC(=O)O)C(=O)N[C@@H](CC(N)=O)C(=O)N[C@H](C(=O)N[C@@H](C)C(=O)N1CCC[C@H]1C(=O)N[C@H]1CCCCNC(=O)C[C@@H](C(=O)N2CCC[C@H]2C(=O)N[C@@H](CCC(N)=O)C(=O)NCC(=O)N[C@@H](Cc2ccc(O)cc2)C(N)=O)NC(=O)[C@H]([C@@H](C)CC)NC(=O)[C@H](CCCCN)NC(=O)[C@H](CO)NC1=O)C(C)C)[C@@H](C)O` [TAM-17] (X1-K(C18 diacid)G[Dap]RFGTETVQKLAHQIYQFT[PEG3]DNVAPKSKIDPQGY-NH2; lactam 3-8, 28-32), the half-life was more than 144 h.

Turning to `CC[C@H](C)[C@H](NC(=O)[C@H](CCC(N)=O)NC(=O)[C@H](Cc1c[nH]cn1)NC(=O)[C@H](C)NC(=O)[C@H](CC(C)C)NC(=O)[C@H](CCCCN)NC(=O)[C@H](CCC(N)=O)NC(=O)[C@@H](NC(=O)[C@@H](NC(=O)[C@@H]1CCC(=O)NC[C@H](NC(=O)CNC(=O)[C@H](CCCCNC(=O)CCCCCCCCCCCCCCCCC(=O)O)NC(=O)c2ccc3c(c2)C2(OC3=O)c3ccc(N(C)C)cc3Oc3cc(N(C)C)ccc32)C(=O)N[C@@H](CCCNC(=N)N)C(=O)N[C@@H](Cc2ccccc2)C(=O)NCC(=O)N[C@@H]([C@@H](C)O)C(=O)N1)[C@@H](C)O)C(C)C)C(=O)N[C@@H](Cc1ccc(O)cc1)C(=O)N[C@@H](CCC(N)=O)C(=O)N[C@@H](Cc1ccccc1)C(=O)N[C@H](C(=O)N[C@@H](CC(=O)O)C(=O)N[C@@H](CCCCN)C(=O)N[C@@H](CC(=O)O)C(=O)N[C@@H](CCCCN)C(=O)N[C@@H](CC(=O)O)C(=O)N[C@@H](CC(N)=O)C(=O)N[C@H](C(=O)N[C@@H](C)C(=O)N1CCC[C@H]1C(=O)N[C@@H](CCCNC(=N)N)C(=O)N[C@@H](CO)C(=O)N[C@@H](CCCCN)C(=O)N[C@H](C(=O)N[C@@H](CO)C(=O)N1CCC[C@H]1C(=O)N[C@@H](CCC(N)=O)C(=O)NCC(=O)N[C@@H](Cc1ccc(O)cc1)C(N)=O)[C@@H](C)CC)C(C)C)[C@@H](C)O` [TAM-15] (X1-K(C18 diacid)G[Dap]RFGTETVQKLAHQIYQFTDKDKDNVAPRSKISPQGY-NH2; lactam 3-8), the half-life was more than 144 h.

Take `CC[C@H](C)[C@H](NC(=O)[C@H](CCC(N)=O)NC(=O)[C@H](Cc1c[nH]cn1)NC(=O)[C@H](C)NC(=O)[C@H](CC(C)C)NC(=O)[C@H](CCCCN)NC(=O)[C@H](CCC(N)=O)NC(=O)[C@@H](NC(=O)[C@@H](NC(=O)[C@@H]1CSSC[C@H](NC(=O)CNC(=O)[C@H](CCCCNC(=O)CCCCCCCCCCCCCCCCC(=O)O)NC(=O)c2ccc3c(c2)C2(OC3=O)c3ccc(N(C)C)cc3Oc3cc(N(C)C)ccc32)C(=O)N[C@@H](CCCNC(=N)N)C(=O)N[C@@H](Cc2ccccc2)C(=O)NCC(=O)N[C@@H]([C@@H](C)O)C(=O)N1)[C@@H](C)O)C(C)C)C(=O)N[C@@H](Cc1ccc(O)cc1)C(=O)N[C@@H](CCC(N)=O)C(=O)N[C@@H](Cc1ccccc1)C(=O)N[C@H](C(=O)NCCOCCOCCOCCC(=O)N[C@@H](CC(=O)O)C(=O)N[C@@H](CC(N)=O)C(=O)N[C@H](C(=O)N[C@@H](C)C(=O)N1CCC[C@H]1C(=O)N[C@H]1CCCCNC(=O)C[C@@H](C(=O)N2CCC[C@H]2C(=O)N[C@@H](CCC(N)=O)C(=O)NCC(=O)N[C@@H](Cc2ccc(O)cc2)C(N)=O)NC(=O)[C@H]([C@@H](C)CC)NC(=O)[C@H](CCCCN)NC(=O)[C@H](CO)NC1=O)C(C)C)[C@@H](C)O` [TAM-14] (X1-K(C18 diacid)GCRFGTCTVQKLAHQIYQFT[PEG3]DNVAPKSKIDPQGY-NH2; disulfide 3-8; lactam 28-32): the half-life was more than 144 h.

`CC[C@H](C)[C@H](NC(=O)[C@H](CCC(N)=O)NC(=O)[C@H](Cc1c[nH]cn1)NC(=O)[C@H](C)NC(=O)[C@H](CC(C)C)NC(=O)[C@H](CCCCN)NC(=O)[C@H](CCC(N)=O)NC(=O)[C@@H](NC(=O)[C@@H](NC(=O)[C@@H]1CSSC[C@H](NC(=O)CNC(=O)[C@H](CCCCNC(=O)CCCCCCCCCCCCCCCCC(=O)O)NC(=O)c2ccc3c(c2)C2(OC3=O)c3ccc(N(C)C)cc3Oc3cc(N(C)C)ccc32)C(=O)N[C@@H](CCCNC(=N)N)C(=O)N[C@@H](Cc2ccccc2)C(=O)NCC(=O)N[C@@H]([C@@H](C)O)C(=O)N1)[C@@H](C)O)C(C)C)C(=O)N[C@@H](Cc1ccc(O)cc1)C(=O)N[C@@H](CCC(N)=O)C(=O)N[C@@H](Cc1ccccc1)C(=O)N[C@H](C(=O)N[C@@H](CC(=O)O)C(=O)N[C@@H](CCCCN)C(=O)N[C@@H](CC(=O)O)C(=O)N[C@@H](CCCCN)C(=O)N[C@@H](CC(=O)O)C(=O)N[C@@H](CC(N)=O)C(=O)N[C@H](C(=O)N[C@@H](C)C(=O)N1CCC[C@H]1C(=O)N[C@@H](CCCNC(=N)N)C(=O)N[C@@H](CO)C(=O)N[C@@H](CCCCN)C(=O)N[C@H](C(=O)N[C@@H](CO)C(=O)N1CCC[C@H]1C(=O)N[C@@H](CCC(N)=O)C(=O)NCC(=O)N[C@@H](Cc1ccc(O)cc1)C(N)=O)[C@@H](C)CC)C(C)C)[C@@H](C)O` [TAM-5]: the half-life is 149 h.
